Data: paper PMC11007962, “First-in-human study of GFH018, a small molecule inhibitor of transforming growth factor-β receptor I inhibitor, in patients with advanced solid tumors” (BMC Cancer, 2024)
Entries after “also recorded” stand apart in the source; their conditions may differ. Read-outs that look alike come from different tables or passages of the source.

Tested on: patients with advanced solid tumors
[1] = 85 mg BID 14d-on/14d-off (N = 12)
[2] = all 50 patients, none related to GFH018

Experimental: The study consisted of a dose-escalation part followed by an expansion part. In the dose escalation part, a 3-day pharmacokinetic (PK) lead-in period was conducted for a single dose in the first treatment cycle. Patients received GFH018 once on cycle 1 day 1 (C1D1) and underwent serial PK testing over the first 3 days. On C1D4, patients were administered the corresponding dose of GFH018 BID 14 days on/14 days off. The first cycle was defined as 31 days, including 3-day PK leading-in period with GFH018 single dosing and then 14d-on/14d-off dosing schedule. The subsequent cycles were 28 days. The starting dose of GFH018 was 5 mg, with eight planned dose levels up to 85 mg (5, 10, 20, 30, 40, 50, 65, and 85 mg). A modified 3+3 design was used to determine the maximum tolerance dose (MTD) and RDE, guided by safety/tolerability and PK data. Dose-limiting toxicities (DLTs) were evaluated during the first cycle at each dose level. The safety of 85 mg BID, 7 d-on/7 d-off, was explored after confirming the safety of 14 d-on/14 d-off. The DLTs were defined as hematological toxicities, including G4 neutropenia lasting for more than 5 days, G3 febrile neutropenia, G4 anemia, G4 thrombocytopenia, or G3 thrombocytopenia accompanied by bleeding, and ≥ G3 nonhematological toxicity (except for diarrhea, nausea, vomiting, and rash recovering ≤ G2 after supportive treatment within 3 days). The DLTs for cardiac toxicities included ≥ G2 cardiac valve abnormalities, ≥ G2 left ventricular ejection fraction (LVEF) decrease, any cardiovascular impairment shown in imaging, and abnormal highly sensitive troponin (hs-Tn) increased to ≥ twice the baseline in two consecutive tests with an interval ≥ 3 days. In the expansion part, patients were orally administered GFH018 RDE twice daily to further evaluate the safety of RDE and other dose regimens. […] The treatment cycle lasted 28 days.
All enrolled patients were monitored regularly after GFH018 administration. Safety assessments included adverse events (AEs), serious AEs (SAEs), laboratory assessments, vital signs, physical examinations, electrocardiography and echocardiography. AEs were graded according to the NCI Common Terminology Criteria for Adverse Events (NCI-CTCAE) v5.0. All AEs were followed up until they were stable or had recovered to baseline. Adverse events of special interest (AESIs) were predefined as echocardiographic abnormalities such as aggravated stenosis or regurgitation of the heart valves, clinically significant decreases in LVEF, brain natriuretic peptide (BNP) or N-terminal pro-brain natriuretic peptide (NT-proBNP) increases, and hs-Tn increases judged by investigators.
For the safety and efficacy analyses, data from patients who received GFH018 at the same dose in the dose-escalation and expansion cohorts were pooled. The demographic and baseline characteristics were summarized using descriptive methods. Safety and efficacy data were summarized for all patients who received at least one dose of GFH018. The ORR and DCR were summarized by cohort and overall. When the sample size of the analyzed group was ten or more, the Kaplan–Meier method was used to estimate the median PFS and TTP. In this study, treatment-emergent AEs (TEAEs) were defined as AEs that occurred on or after the first dosing date of GFH018 and no later than 30 days after the last dose of GFH018. The incidence and severity of AEs were descriptively summarized according to dose level. The PK parameters of GFH018 were calculated using noncompartmental analysis methods. All plasma PK data were summarized by cohort and visit day or time using descriptive statistics.

Cc1cccc(-c2nn3c(c2-c2ccc4ncnn4c2/C=C/C(N)=O)CCC3)n1 [GFH018]
TEAE: White blood cell count decreased [1]: 2 (16.7%) n (%)
TEAE: White blood cells urine positive [1]: 3 (25.0%) n (%)
TEAE: White blood cells urine positive, any grade (Table S3) [1]: 3 (25.0%) n (%)
TEAE: White blood cells urine positive, maximal CTCAE grade G1 [1]: 3 (25.0%) n (%)
TEAE: White blood cells urine positive, maximal CTCAE grade G2 [1]: 0 n (%)
TEAE: White blood cells urine positive, maximal CTCAE grade G3 [1]: 0 n (%)
TEAE: White blood cells urine positive, maximal CTCAE grade G4 [1]: 0 n (%)
TEAE: White blood cells urine positive, maximal CTCAE grade G5 [1]: 0 n (%)
TRAE: ALP increased [1]: 1 (8.3%) n (%)
TRAE: ALT increased [1]: 2 (16.7%) n (%)
TRAE: AST increased [1]: 4 (33.3%) n (%)
TRAE: Anemia [1]: 3 (25.0%) n (%)
TRAE: GGT increased [1]: 2 (16.7%) n (%)
TRAE: LDH increased [1]: 2 (16.7%) n (%)
TRAE: Lymphocyte count decreased [1]: 2 (16.7%) n (%)
TRAE: Protein urine present [1]: 1 (8.3%) n (%)
TRAE: Proteinuria [1]: 1 (8.3%) n (%)
Treatment-emergent Proteinuria (grouped PTs), G1 [1]: 1 (8.3) n (%)
Treatment-emergent Proteinuria (grouped PTs), G2 [1]: 1 (8.3) n (%)
Treatment-emergent Proteinuria (grouped PTs), G3 [1]: 1 (8.3) n (%)
Treatment-emergent Proteinuria (grouped PTs: proteinuria and urine protein present), any grade [1]: 3 (25.0) n (%)
correlation between incidences of TRAEs and dosages (5–85 mg BID): no obvious correlation
dose-limiting toxicities (DLTs) (5–85 mg BID, evaluated during the first cycle): No dose-limiting toxicity occurred; also recorded: no DLTs were observed at any dose level; also recorded: without any DLTs
skin toxicity (GFH018 as a single agent): No special concerns related to skin toxicity were raised
At least one TEAE (Total (N = 50)): 48 (96.0%) n (%)
At least one TEAE (Table S3) (Total (N = 50)): 48 (96.0%) n (%)
At least one TRAE (Total (N = 50)): 43 (86.0%) n (%)
TEAE: ALP increased (Total (N = 50)): 8 (16.0%) n (%)
TEAE: ALT increased (Total (N = 50)): 8 (16.0%) n (%)
TEAE: ALT increased, any grade (Table S3) (Total (N = 50)): 8 (16.0%) n (%)
TEAE: ALT increased, maximal CTCAE grade G1 (Total (N = 50)): 8 (16.0%) n (%)
TEAE: ALT increased, maximal CTCAE grade G2 (Total (N = 50)): 0 n (%)
TEAE: ALT increased, maximal CTCAE grade G3 (Total (N = 50)): 0 n (%)
TEAE: ALT increased, maximal CTCAE grade G4 (Total (N = 50)): 0 n (%)
TEAE: ALT increased, maximal CTCAE grade G5 (Total (N = 50)): 0 n (%)
TEAE: AST increased (Total (N = 50)): 11 (22.0%) n (%)
TEAE: AST increased, any grade (Table S3) (Total (N = 50)): 11 (22.0%) n (%)
TEAE: AST increased, maximal CTCAE grade G1 (Total (N = 50)): 10 (20.0%) n (%)
TEAE: AST increased, maximal CTCAE grade G2 (Total (N = 50)): 1 (2.0%) n (%)
TEAE: AST increased, maximal CTCAE grade G3 (Total (N = 50)): 0 n (%)
TEAE: AST increased, maximal CTCAE grade G4 (Total (N = 50)): 0 n (%)
TEAE: AST increased, maximal CTCAE grade G5 (Total (N = 50)): 0 n (%)
TEAE: Abdominal distention (Total (N = 50)): 7 (14.0%) n (%)
TEAE: Abdominal pain (Total (N = 50)): 9 (18.0%) n (%)
TEAE: Anemia (Total (N = 50)): 17 (34.0%) n (%)
TEAE: Asthenia (Total (N = 50)): 9 (18.0%) n (%)
TEAE: Bilirubin conjugated increased (Total (N = 50)): 8 (16.0%) n (%)
TEAE: Blood albumin decreased (Total (N = 50)): 6 (12.0%) n (%)
TEAE: Blood bilirubin increased (Total (N = 50)): 5 (10.0%) n (%)
TEAE: C-reactive protein increased (Total (N = 50)): 5 (10.0%) n (%)
TEAE: C-reactive protein increased, any grade (Table S3) (Total (N = 50)): 5 (10.0%) n (%)
TEAE: C-reactive protein increased, maximal CTCAE grade G1 (Total (N = 50)): 5 (10.0%) n (%)
TEAE: C-reactive protein increased, maximal CTCAE grade G2 (Total (N = 50)): 0 n (%)
TEAE: C-reactive protein increased, maximal CTCAE grade G3 (Total (N = 50)): 0 n (%)
TEAE: C-reactive protein increased, maximal CTCAE grade G4 (Total (N = 50)): 0 n (%)
TEAE: C-reactive protein increased, maximal CTCAE grade G5 (Total (N = 50)): 0 n (%)
TEAE: Constipation (Total (N = 50)): 8 (16.0%) n (%)
TEAE: Decreased appetite (Total (N = 50)): 6 (12.0%) n (%)
TEAE: Decreased appetite, any grade (Table S3) (Total (N = 50)): 6 (12.0%) n (%)
TEAE: Decreased appetite, maximal CTCAE grade G1 (Total (N = 50)): 4 (8.0%) n (%)
TEAE: Decreased appetite, maximal CTCAE grade G2 (Total (N = 50)): 2 (4.0%) n (%)
TEAE: Decreased appetite, maximal CTCAE grade G3 (Total (N = 50)): 0 n (%)
TEAE: Decreased appetite, maximal CTCAE grade G4 (Total (N = 50)): 0 n (%)
TEAE: Decreased appetite, maximal CTCAE grade G5 (Total (N = 50)): 0 n (%)
TEAE: GGT increased (Total (N = 50)): 10 (20.0%) n (%)
TEAE: GGT increased, any grade (Table S3) (Total (N = 50)): 10 (20.0%) n (%)
TEAE: GGT increased, maximal CTCAE grade G1 (Total (N = 50)): 8 (16.0%) n (%)
TEAE: GGT increased, maximal CTCAE grade G2 (Total (N = 50)): 2 (4.0%) n (%)
TEAE: GGT increased, maximal CTCAE grade G3 (Total (N = 50)): 0 n (%)
TEAE: GGT increased, maximal CTCAE grade G4 (Total (N = 50)): 0 n (%)
TEAE: GGT increased, maximal CTCAE grade G5 (Total (N = 50)): 0 n (%)
TEAE: Hypoalbuminemia (Total (N = 50)): 7 (14.0%) n (%)
TEAE: LDH increased (Total (N = 50)): 8 (16.0%) n (%)
TEAE: LDH increased, any grade (Table S3) (Total (N = 50)): 8 (16.0%) n (%)
TEAE: LDH increased, maximal CTCAE grade G1 (Total (N = 50)): 8 (16.0%) n (%)
TEAE: LDH increased, maximal CTCAE grade G2 (Total (N = 50)): 0 n (%)
TEAE: LDH increased, maximal CTCAE grade G3 (Total (N = 50)): 0 n (%)
TEAE: LDH increased, maximal CTCAE grade G4 (Total (N = 50)): 0 n (%)
TEAE: LDH increased, maximal CTCAE grade G5 (Total (N = 50)): 0 n (%)
TEAE: Lymphocyte count decreased (Total (N = 50)): 12 (24.0%) n (%)
TEAE: Platelet count decreased (Total (N = 50)): 6 (12.0%) n (%)
TEAE: Proteinuria (Total (N = 50)): 11 (22.0%) n (%)
TEAE: Sinus tachycardia (Total (N = 50)): 10 (20.0%) n (%)
TEAE: Urine protein present (Total (N = 50)): 10 (20.0%) n (%)
TEAE: White blood cell count decreased (Total (N = 50)): 7 (14.0%) n (%)
TEAE: White blood cells urine positive (Total (N = 50)): 5 (10.0%) n (%)
TEAE: White blood cells urine positive, any grade (Table S3) (Total (N = 50)): 5 (10.0%) n (%)
TEAE: White blood cells urine positive, maximal CTCAE grade G1 (Total (N = 50)): 5 (10.0%) n (%)
TEAE: White blood cells urine positive, maximal CTCAE grade G2 (Total (N = 50)): 0 n (%)
TEAE: White blood cells urine positive, maximal CTCAE grade G3 (Total (N = 50)): 0 n (%)
TEAE: White blood cells urine positive, maximal CTCAE grade G4 (Total (N = 50)): 0 n (%)
TEAE: White blood cells urine positive, maximal CTCAE grade G5 (Total (N = 50)): 0 n (%)
TRAE: ALP increased (Total (N = 50)): 5 (10.0%) n (%)
TRAE: ALT increased (Total (N = 50)): 6 (12.0%) n (%)
TRAE: AST increased (Total (N = 50)): 9 (18.0%) n (%)
TRAE: Anemia (Total (N = 50)): 7 (14.0%) n (%)
TRAE: GGT increased (Total (N = 50)): 5 (10.0%) n (%)
TRAE: LDH increased (Total (N = 50)): 5 (10.0%) n (%)
TRAE: Lymphocyte count decreased (Total (N = 50)): 6 (12.0%) n (%)
TRAE: Protein urine present (Total (N = 50)): 6 (12.0%) n (%)
TRAE: Proteinuria (Total (N = 50)): 7 (14.0%) n (%)
Treatment-emergent Proteinuria (grouped PTs), G1 (Total (N = 50)): 12 (24.0) n (%)
Treatment-emergent Proteinuria (grouped PTs), G2 (Total (N = 50)): 8 (16.0) n (%)
Treatment-emergent Proteinuria (grouped PTs), G3 (Total (N = 50)): 1 (2.0) n (%)
Treatment-emergent Proteinuria (grouped PTs: proteinuria and urine protein present), any grade (Total (N = 50)): 21 (42.0) n (%)
TRAE ALP increased, all G (all 50 patients): 10.0%
TRAE ALP increased, ≥G3 (all 50 patients): 0%
TRAE ALT increased, all G (all 50 patients): 12%
TRAE ALT increased, ≥G3 (all 50 patients): 0%
TRAE AST increased, all G (all 50 patients): 18%
TRAE AST increased, ≥G3 (all 50 patients): 0%
TRAE GGT increased, all G (all 50 patients): 10.0%
TRAE GGT increased, ≥G3 (all 50 patients): 0%
TRAE LDH increased, all G (all 50 patients): 10.0%
TRAE LDH increased, ≥G3 (all 50 patients): 0%
TRAE anemia, all G (all 50 patients): 14%
TRAE anemia, ≥G3 (all 50 patients): 2%
TRAE lymphocyte count decreased, all G (all 50 patients): 12.0%
TRAE lymphocyte count decreased, ≥G3 (all 50 patients): 2.0%
TRAE proteinuria, all G (all 50 patients): 14%
TRAE proteinuria, ≥G3 (all 50 patients): 2%
TRAE urine protein present, all G (all 50 patients): 12.0%
TRAE urine protein present, ≥G3 (all 50 patients): 0%
bleeding events (all 50 patients): No significant cardiotoxicity or bleeding was observed; also recorded: No bleeding events occurred
cardiotoxicity (all 50 patients): No significant cardiotoxicity or bleeding was observed; also recorded: No significant cardiotoxicity was observed; also recorded: No significant cardiovascular toxicities were observed
changes in serum creatinine levels or estimated glomerular filtration rate (all 50 patients): no clinically significant changes
grade 4 or 5 TRAEs (all 50 patients): No grade 4 or 5 TRAEs were observed
patients with grade 3 proteinuria (all 50 patients): one
patients with at least one TEAE (all 50 patients, 5-85 mg): ~96.0%
patients with at least one TRAE (all 50 patients, 5-85 mg): 86.0%
patients with at least one ≥ G3 TEAE (all 50 patients, 5-85 mg): 26.0%
patients with ≥ G3 TRAEs (all 50 patients, 5-85 mg): 6%
deaths (all 50 patients, all judged unrelated to GFH018): Six
patients with at least one serious AE (SAE) [2]: nine
treatment discontinuation due to AEs (bilirubin increased, peripheral edema) [2]: two
severity of AESIs (all 50 patients, without clinical symptoms or signs): mild (Grade 1)
maximum tolerated dose (MTD) (eight dose levels up to 85 mg): not reached
